In publication PMC9822769, “The Strange Case: The Unsymmetric Cisplatin-Based Pt(IV) Prodrug [Pt(CH3COO)Cl2(NH3)2(OH)] Exhibits Higher Cytotoxic Activity with respect to Its Symmetric Congeners due to Carrier-Mediated Cellular Uptake” (Bioinorganic Chemistry and Applications, 2022):

Experiments:
HCT 116 = experiment: Resazurin reduction cell viability assay, HCT 116; type: cell-based, human; conditions: 72 h of treatment; mean ± sd
Procedure: (§1) The compounds under investigation were tested on a panel of commercial human cancer cell lines: ovarian endometrioid adenocarcinoma A2780 (ICLC HTL98008), its cisplatin-resistant variant A2780cisR (ECACC 93112517), colon carcinoma HCT 116 (ECACC 91091005), breast invasive ductal carcinoma MCF7 (ECACC 86012803), embryonal carcinoma NTERA-2 clone D1 (also known as NT2/D1, ICLC HTL97025), and lung adenocarcinoma A549 (ICLC HTL03001). Furthermore, a cell line derived from the pleural effusion of a patient with untreated malignant pleural mesothelioma (MPM) was added to the panel, namely, MM98 (sarcomatoid phenotype). Commercial cells were purchased from the European Collection of Authenticated Cell Cultures (ECACC, UK) or the Interlab Cell Line Collection (ICLC, Genoa, Italy), while the MM98 cell line was obtained from the Pathology Unit of the National Hospital of Alessandria (Italy).
(§2) The following media were used to grow the cells: RPMI 1640 (for A2780, A2780cisR, NT2/D1, and A549 cells), DMEM (for MCF7 cells), DMEM supplemented with nonessential amino acids (for MM98 cells), and McCoy's 5A (for HCT 116 cells). All media contained L-glutamine (2 mM) and were added with penicillin (100 IU·mL^−1), streptomycin (100 mg·L^−1), and 10% heat inactivated FBS. To maintain resistance in A2780cisR cells, cisplatin (1 μM) was added to the medium every two passages.
(§3) Continuous treatments (CT) were carried out at 37°C in a humidified chamber with 5% CO2. Cisplatin was dissolved in a 0.9% w/v NaCl aqueous solution and brought to pH = 3 with HCl (final stock concentration 1 mM). The Pt(IV) Complexes 1–3 were dissolved in milliQ water (final stock concentration 5 mM) and stored at −20°C. The stock concentration was confirmed with inductively coupled plasma-mass spectrometry (ICP-MS) measurements. The mother solutions were diluted in a complete medium to the required concentration.
(§4) To assess the growth inhibition of the compounds under investigation, a cell viability test (i.e., the resazurin reduction assay) was used. […] At the end of the treatment (72 h), viability was evaluated with 100 μg·mL^−1 resazurin (Acros Chemicals, France) in a fresh medium for 1 h at 37°C, and the amount of the reduced product, resorufin, was measured by fluorescence (excitation λ = 535 nm, emission λ = 595 nm) with a Tecan Infinite F200Pro plate reader (Tecan, Austria). In each experiment, cells were challenged with drug candidates at different concentrations, and the final data were calculated from at least three replicates of the same experiment performed in triplicate. The fluorescence of 8 wells containing a medium without cells was used as a blank. Fluorescence data were normalized to 100% cell viability for nontreated cells. […]

A549 = experiment: Resazurin reduction cell viability assay, A549; type: cell-based, human; conditions: 72 h of treatment; mean ± sd
Procedure: as §1, §2, §3, §4

MCF-7 = experiment: Resazurin reduction cell viability assay, MCF-7; type: cell-based, human; conditions: 72 h of treatment; mean ± sd
Procedure: as §1, §2, §3, §4

A2780 cells = experiment: Cellular Pt accumulation (accumulation ratio, ICP-MS) in A2780 cells; type: cell-based, human; conditions: A2780, 4 h CT, 10 μM
Procedure: A2780 and A2780cisR cells were seeded in 10 mm Petri dishes and challenged with complexes under investigation (10 μM) in a complete medium for 4 h. At the end of the exposure, cells were washed three times with PBS, detached from Petri dishes using 0.05% trypsin 1x + 2% EDTA (HyClone, Thermo Fisher), and harvested in a completely fresh medium. An automatic cell counting device (Countess®, Life Technologies) was used to measure the number and mean diameter of each cell necessary to calculate the mean cellular (spherical) volume.
For the analysis of Pt accumulation, cells were transferred to a borosilicate glass tube and centrifuged at 1100 rpm for 5 min at room temperature. The supernatant was carefully removed by aspiration, while approximately, 200 μL of the supernatant was left to limit cell loss. Cellular pellets were stored at −80°C until mineralization.
The determination of the platinum content was performed by ICP-MS (Thermo Optek X Series 2). Mineralization was carried out by adding 70% w/w HNO3 to each sample (after defrosting), followed by incubation for 1 h at 60°C in an ultrasonic bath. Before the ICP-MS measurement, HNO3 was diluted to a final concentration of 1%. The instrument settings were optimized to produce the highest platinum sensitivity, and the most abundant isotopes of Pt and In (used as an internal standard) were quantified at m/z 195 and 115, respectively.
The quantity of Pt found in cells and normalized on cell number (cellular Pt accumulation) was expressed as ng of Pt per 10^6 cells. The mean cellular volume, calculated from the actual mean cell diameter measured for each sample (about 12 μm), was used to obtain the volume of 10^6 cells and, finally, the intracellular Pt concentration. At treatment time zero, 100 μL of the medium was taken from each sample to verify the extracellular Pt concentration. The ratio between intracellular and the actual extracellular concentrations is defined as the accumulation ratio, AR [70]. The Pt content in the control experiment, which characterizes any possible Pt contamination during the overall process, was statistically insignificant with respect to the cellular Pt accumulated during treatment, even in the case of A2780cisR.
Experiments with the inhibitors were carried out at 37°C as follows: (i) NaN3 + 2-deoxy-D-glucose (2DG): preincubation for 30 min in PBS with 25 mM NaN3 and 25 mM 2DG, followed by a 10 μM CT with the Pt compounds in Earle's Balanced Salt Solution (EBSS) for 1 h; (ii) cimetidine (CMT): coincubation with 1.5 mM CMT and 10 μM Pt compounds in EBSS for 1 h; (iii) 1-methyl-4-phenylpyridin-1-ium (MPP^+): coincubation with 2.0 mM MPP^+ and 10 μM Pt compounds in EBSS for 1 h; (iv) cytochalasin D (CTD): preincubation for 30 min in EBSS with 10 μM CTD, followed by a 10 μM CT with the Pt compounds in EBSS for 1 h; (v) O-benzylserine (BS): coincubation with 1.0 mM BS and 10 μM Pt compounds in EBSS for 4 h; (vi) ouabain (OUA): preincubation for 1 h in EBSS with 1 mM OUA, followed by a 10 μM CT with the Pt compounds in EBSS for 4 h; (vii) tetraethylammonium chloride (TEA): preincubation for 1 h with 2.0 mM TEA followed by 10 μM Pt compounds in EBSS for 4 h. In the experiments at low temperature, A2780 cells were preincubated for 2 h at 4°C, followed by CT with each Pt compound (10 μM) for 4 h. In all cases, at the end of the CT, the cells were manipulated as described in the previous paragraphs.

[1] = parameters: method as in PMID 32296997; conditions: 37°C, ten-fold excess of ascorbic acid; cited from earlier work

SMILES | IC50 (HCT 116) [µM] | IC50 (A549) [µM] | IC50 (MCF-7) [µM] | ratio between AR 37°C and AR 4°C (A2780 cells) | t ½ [1] [min] | accumulation ratio (AR) (A2780 cells; 37°C)
N.N.[Cl][Pt][Cl] [Cisplatin, (SP-4-2)-diamminedichloridoplatinum(II)] | 2.3 ± 0.3 | 3.8 ± 0.7 | 6.46 ± 0.91 | increases hugely |  | 
N.N.[OH][Pt]([OH])([Cl])[Cl] [Complex 1, (OC-6-33)-diamminedichloridodihydroxidoplatinum(IV)] | 22.9 ± 3.89 | 48.2 ± 27.7 | 78.1 ± 5.6 | 3.2 | 8.6 | 
CC(=O)[O][Pt]([OH])([Cl])[Cl].N.N [Complex 2, (OC-6-44)-acetatodiamminedichloridohydroxidoplatinum(IV)] | 1.46 ± 0.02 | 3.11 ± 0.74 | 8.86 ± 3.45 | increases hugely | 20.5 | higher AR at 4 h than 1 and 3, even higher than that of cisplatin
CC(=O)[O][Pt]([NH2])([NH2])([Cl])([Cl])[O]C(C)=O [Complex 3, (OC-6-33)-diamminedichloridodiacetatoplatinum(IV)] | 55.3 ± 1.69 | 78 ± 17.7 | > 100 | 3.6 | 528 | 
